What follows are compounds tested against NSD2 [1-1365] (Homo sapiens (Human), UniProt O96028) (assay: LC-MS/MS-based NSD2 enzymatic assay (SAH production)). Conditions: NSD2 biochemical activity, class symbols; read-out: NSD2 IC50.
Format: biochemical
Experimental: LC-MS/MS-Based NSD2 Enzymatic Assay
This assay employed LC-MS/MS technology to monitor the SAH production from the NSD2 enzymatic reaction. The enzymatic reaction was performed in white proxiplate plus 384-well microplate (Perkin Elmer). The reaction mixture (10 μL) were composed of 8 nM NSD2 [1-1365], […] SAM (USB, 10601) and 400 nM nucleosome (purified from mouse liver) in reaction buffer (20 mM Tris-HCl, pH at 8.0, 0.01% Tween 20, 10 mM MgCl2, 50 mM NaCl, 1 mM DTT, 1 mM TCEP (pH7.5)). After 90 min incubation at room temperature, 3 μL quenching solution containing 2.5% TFA with 320 nM d4-SAH was added to stop the reaction.
For the inhibition assay, compound solutions were transferred into the wells by Mosquito™ (TTP LabTech). The inhibition assays were carried out by preincubating various concentrations of the inhibitor with 5 uL reaction mixture containing 16 nM NSD2 [1-1365] and 2 uM SAM (USB, 10601) in reaction buffer. After 20 min preincubation, 5 uL solution containing 800 nM nucleosome (purified from mouse liver) in reaction buffer was added to initiate the reaction. The reaction was stopped by 3 μL quenching solution containing 2.5% TFA with 320 nM d4-SAH after 90 min.
The SAH production from the enzymatic assays were monitored by LC-MS/MS on an API 4000 triple quadrupole mass spec with Turbolon Spray (Applied Biosystem) coupled with Prominenece UFLC(Shimazu). Liquid chromatography was performed on a Chromolith FastGradient HPLC column (RP-18e, 25-2 mm, from Merck) at a flow rate of 0.8 ml/min. The column was connected directly to the turbo ion electrospray operating in the positive-ion mode. Mobile phase A is 0.1% FA and 2% methanol in water and mobile phase B is 0.1% FA in ACN. Injection volume was 3 μl and the autosampler was kept at 4 degree. SAH and d4-SAH were simultaneously monitored. Data were acquired and processed by Analyst software.
To quantify the formed SAH, d4-SAH was added as internal standard (IS). A series of SAH (Sigma, A9384) solution at varying concentration (1-500 nM in reaction buffer) was mixed with quenching solution mentioned above. Then LC-MS/MS was carried out on API 4000 LC/MS/MS system to detect both SAH and d4-SAH. The plot of SAH peak area/IS peak area vs SAH concentration was used to generate the normalization factor of SAH. The SAH production from real enzymatic reaction was derived from the standard curve of SAH. The down-limit of our system for the detection of SAH is around 1-2 nM, and the linear range can reach up to 500 nM.

Sequence of NSD2 [1-1365] (O96028 whole entry): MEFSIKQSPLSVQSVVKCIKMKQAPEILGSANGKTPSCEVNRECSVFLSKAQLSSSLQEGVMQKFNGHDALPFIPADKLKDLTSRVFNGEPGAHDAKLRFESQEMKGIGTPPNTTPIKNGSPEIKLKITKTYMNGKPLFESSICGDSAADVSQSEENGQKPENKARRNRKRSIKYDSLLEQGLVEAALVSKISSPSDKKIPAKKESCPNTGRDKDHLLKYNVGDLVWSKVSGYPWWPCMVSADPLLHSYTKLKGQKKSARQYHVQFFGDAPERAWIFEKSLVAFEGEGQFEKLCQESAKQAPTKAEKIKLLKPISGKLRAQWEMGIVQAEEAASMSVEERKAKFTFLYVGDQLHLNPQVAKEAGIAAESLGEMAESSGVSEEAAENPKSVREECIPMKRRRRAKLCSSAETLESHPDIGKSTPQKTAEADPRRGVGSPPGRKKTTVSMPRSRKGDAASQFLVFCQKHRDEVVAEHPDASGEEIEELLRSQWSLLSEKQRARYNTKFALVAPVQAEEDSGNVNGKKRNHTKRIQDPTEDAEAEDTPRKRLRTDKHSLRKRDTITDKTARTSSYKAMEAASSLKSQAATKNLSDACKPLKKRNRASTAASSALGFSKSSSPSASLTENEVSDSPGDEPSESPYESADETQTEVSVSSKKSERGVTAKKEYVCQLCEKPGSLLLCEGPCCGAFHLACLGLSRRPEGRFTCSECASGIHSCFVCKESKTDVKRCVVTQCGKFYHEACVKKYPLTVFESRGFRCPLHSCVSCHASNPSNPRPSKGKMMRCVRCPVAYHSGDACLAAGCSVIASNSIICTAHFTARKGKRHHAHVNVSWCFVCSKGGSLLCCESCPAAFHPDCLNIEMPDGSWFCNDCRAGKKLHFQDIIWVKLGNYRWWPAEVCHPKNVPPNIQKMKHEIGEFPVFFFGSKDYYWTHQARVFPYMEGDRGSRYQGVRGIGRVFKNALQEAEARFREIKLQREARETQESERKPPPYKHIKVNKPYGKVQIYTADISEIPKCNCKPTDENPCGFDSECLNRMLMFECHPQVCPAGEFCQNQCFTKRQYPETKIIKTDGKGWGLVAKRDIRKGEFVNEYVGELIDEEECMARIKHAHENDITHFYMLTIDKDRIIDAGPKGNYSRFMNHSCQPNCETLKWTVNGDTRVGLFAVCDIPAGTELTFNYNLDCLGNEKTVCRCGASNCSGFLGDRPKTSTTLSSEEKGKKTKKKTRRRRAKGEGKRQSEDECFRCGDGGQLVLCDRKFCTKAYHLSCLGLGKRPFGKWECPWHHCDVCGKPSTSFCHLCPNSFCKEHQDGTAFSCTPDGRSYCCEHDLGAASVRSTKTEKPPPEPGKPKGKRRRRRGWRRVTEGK

IC50 [nM] | Structure (SMILES)
10 to 1000 | COC(=O)C[C@@]1(N)CCCN(c2cnc(-c3cccc(F)c3)cc2Cn2cnc3c(N)ncnc32)C1 [Example 73, methyl (S)-2-(3-amino-1-(4-((6-amino-9H-purin-9-yl)methyl)-6-(3-fluorophenyl)pyridin-3-yl)piperidin-3-yl)acetate]
10 to 1000 | Nc1ncnc2c1ncn2Cc1cc(-c2ccc(F)c(F)c2)ncc1N1CCC[C@](N)(C(=O)NC2CCOCC2)C1 [Example 82, (R)-3-amino-1-(4-((6-amino-9H-purin-9-yl)methyl)-6-(3,4-difluorophenyl)pyridin-3-yl)-N-(tetrahydro-2H-pyran-4-yl)piperidine-3-carboxamide]
10 to 1000 | COCCC1(N)CCCN(c2cnc(-c3ccc(F)c(F)c3)cc2Cn2cnc3c(N)ncnc32)C1 (stereo not shown) [Example 60, 9-((5-(3-amino-3-(2-methoxyethyl)piperidin-1-yl)-2-(3,4-difluorophenyl)pyridin-4-yl)methyl)-9H-purin-6-amine]
> 1000 | N#CC1CCN(c2cnc(-c3ccc(F)c(F)c3)cc2Cn2cnc3c(N)ncnc32)CC1N (stereo not shown) [Example 18, 3-amino-1-(4-((6-amino-9H-purin-9-yl)methyl)-6-(3,4-difluorophenyl)pyridin-3-yl)piperidine-4-carbonitrile]
> 1000 | CC1(C(=O)C2(N)CCCN(c3cnc(-c4ccc(F)c(F)c4)cc3Cn3cnc4c(N)ncnc43)C2)COC1 (stereo not shown) [Example 112, (3-amino-1-(4-((6-amino-9H-purin-9-yl)methyl)-6-(3,4-difluorophenyl)pyridin-3-yl)piperidin-3-yl)(3-methyloxetan-3-yl)methanone]
10 to 1000 | COc1ccc(-c2ncc(N3CCC[C@](N)([C@H](O)C(F)F)C3)c(Cn3cnc4c(N)ncnc43)c2F)c(F)c1 [Example 135, (S)-1-((R)-3-amino-1-(4-((6-amino-9H-purin-9-yl)methyl)-5-fluoro-6-(2-fluoro-4-methoxyphenyl)pyridin-3-yl)piperidin-3-yl)-2,2-difluoroethan-1-ol]
10 to 1000 | Nc1ncnc2c1ncn2Cc1cc(-c2ccc(F)c(F)c2)ncc1N1CCC[C@](N)(C(=O)N2CCCC2)C1 [Example 84, (R)-(3-amino-1-(4-((6-amino-9H-purin-9-yl)methyl)-6-(3,4-difluorophenyl)pyridin-3-yl)piperidin-3-yl)(pyrrolidin-1-yl)methanone]
10 to 1000 | Nc1ncnc2c1ncn2Cc1cc(-c2ccc(C(F)F)cc2F)ncc1N1CCC[C@](N)([C@H](O)C(F)F)C1 [Example 137, (S)-1-((R)-3-amino-1-(4-((6-amino-9H-purin-9-yl)methyl)-6-(4-(difluoromethyl)-2-fluorophenyl)pyridin-3-yl)piperidin-3-yl)-2,2-difluoroethan-1-ol]
10 to 1000 | Nc1ncnc2c1ncn2Cc1cc(-c2ccc3c(c2)CCO3)ncc1N1CC[C@@H](F)[C@@H](N)C1 [Example 14, 9-((5-((3S,4R)-3-amino-4-fluoropiperidin-1-yl)-2-(2,3-dihydrobenzofuran-5-yl)pyridin-4-yl)methyl)-9H-purin-6-amine]
1 to 10 | Nc1ncnc2c1ncn2Cc1cc(-c2cc(F)c(C(F)F)cc2F)ncc1N1CCC[C@](N)([C@H](O)C(F)F)C1 [Example 120, (S)-1-((R)-3-amino-1-(4-((6-amino-9H-purin-9-yl)methyl)-6-(4-(difluoromethyl)-2,5-difluorophenyl)pyridin-3-yl)piperidin-3-yl)-2,2-difluoroethan-1-ol]

Same assay, conditions: read-out: NSD2 IC50

IC50 [nM] | Structure (SMILES)
10 to 1000 | Nc1ncnc2c1ncn2Cc1cc(-c2ccc(F)c(F)c2)ncc1N1CCCC(N)(C(F)CF)C1 (stereo not shown) [Example 287, 9-((5-(3-amino-3-(1,2-difluoroethyl)piperidin-1-yl)-2-(3,4-difluorophenyl)pyridin-4-yl)methyl)-9H-purin-6-amine]
10 to 1000 | Nc1ncnc2c1ncn2Cc1cc(-c2ccc(F)c(F)c2)ncc1N1CCC[C@@H](N)[C@H]1COCC(F)F [Example 313, 9-((5-((2S,3R)-3-amino-2-((2,2-difluoroethoxy)methyl)piperidin-1-yl)-2-(3,4-difluorophenyl)pyridin-4-yl)methyl)-9H-purin-6-amine]
> 1000 | Nc1ncnc2c1ncn2Cc1cc(-c2ccc(F)c(F)c2)ncc1N1CCCC(N)C1=O (stereo not shown) [Example 324, 3-amino-1-(4-((6-amino-9H-purin-9-yl)methyl)-6-(3,4-difluorophenyl)pyridin-3-yl)piperidin-2-one]
10 to 1000 | Nc1ncnc2c1ncn2Cc1cc(-c2ccc(F)c(F)c2)ncc1N1C[C@H](N)C[C@H](F)C1 [Example 309, 9-((5-((3R,5S)-3-amino-5-fluoropiperidin-1-yl)-2-(3,4-difluorophenyl)pyridin-4-yl)methyl)-9H-purin-6-amine]
1 to 10 | Nc1ncnc2c1ncn2Cc1cc(-c2ccc(F)c(F)c2)ncc1N1CCCC(N)(c2ccc(Cl)nn2)C1 (stereo not shown) [Example 249, 9-((5-(3-amino-3-(6-chloropyridazin-3-yl)piperidin-1-yl)-2-(3,4-difluorophenyl)pyridin-4-yl)methyl)-9H-purin-6-amine]
10 to 1000 | Cn1cnc2ccc(-c3cc(Cn4cnc5c(N)ncnc54)c(N4CCCC(N)(c5cccc(Cl)n5)C4)cn3)cc21 (stereo not shown) [Example 220, 9-((5-(3-amino-3-(6-chloropyridin-2-yl)piperidin-1-yl)-2-(1-methyl-1H-benzo[d]imidazol-6-yl)pyridin-4-yl)methyl)-9H-purin-6-amine]
10 to 1000 | COc1ccc(-c2cc(Cn3cnc4c(N)ncnc43)c(N3CCC[C@](N)(c4ccc(F)c(C)n4)C3)cn2)cc1F [Example 207, (R)-9-((5-(3-amino-3-(5-fluoro-6-methylpyridin-2-yl)piperidin-1-yl)-2-(3-fluoro-4-methoxyphenyl)pyridin-4-yl)methyl)-9H-purin-6-amine]
> 1000 | CNC(=O)[C@@H]1[C@H](N)CCCN1c1cnc(-c2ccc(F)c(F)c2)cc1Cn1cnc2c(N)ncnc21 [Example 315, (2S,3R)-3-amino-1-(4-((6-amino-9H-purin-9-yl)methyl)-6-(3,4-difluorophenyl)pyridin-3-yl)-N-methylpiperidine-2-carboxamide]
1 to 10 | Cn1ccc([C@@]2(N)CCCN(c3cnc(-c4ccc(F)c(F)c4)cc3Cn3cnc4c(N)ncnc43)C2)n1 [Example 275, (R)-9-((5-(3-amino-3-(1-methyl-1H-pyrazol-3-yl)piperidin-1-yl)-2-(3,4-difluorophenyl)pyridin-4-yl)methyl)-9H-purin-6-amine]
1 to 10 | Nc1nccc2c1ncn2Cc1cc(-c2ccc(F)cc2)ncc1N1CCC[C@](N)(c2ccn(C(F)F)n2)C1 [Example 279, (R)-1-((5-(3-amino-3-(1-(difluoromethyl)-1H-pyrazol-3-yl)piperidin-1-yl)-2-(4-fluorophenyl)pyridin-4-yl)methyl)-1H-imidazo[4,5-c]pyridin-4-amine]
10 to 1000 | Nc1ncnc2c1ncn2Cc1cc(-c2ccc(F)c(F)c2)ncc1N1CCC[C@@H](N)[C@H]1CCO [Example 314, 2-((2R,3R)-3-amino-1-(4-((6-amino-9H-purin-9-yl)methyl)-6-(3,4-difluorophenyl)pyridin-3-yl)piperidin-2-yl)ethan-1-ol]
10 to 1000 | Nc1ncnc2c1ncn2Cc1cc(-c2ccc(F)c(F)c2)ncc1N1CCC[C@@H](N)[C@H]1COC(F)F [Example 311, 9-((5-((2S,3R)-3-amino-2-((difluoromethoxy)methyl)piperidin-1-yl)-2-(3,4-difluorophenyl)pyridin-4-yl)methyl)-9H-purin-6-amine]
> 1000 | Nc1nccc2c1ncn2Cc1cc(N2CCC2)ncc1N1CCCC(N)(c2cccc(Cl)n2)C1 (stereo not shown) [Example 265, 1-((5-(3-amino-3-(6-chloropyridin-2-yl)piperidin-1-yl)-2-(azetidin-1-yl)pyridin-4-yl)methyl)-1H-imidazo[4,5-c]pyridin-4-amine]
> 1000 | C[C@@H]1CN(c2cnc(-c3ccc(F)cc3)cc2Cn2cnc3c(N)ncnc32)C[C@@](N)(CC(F)F)C1 [Example 307, 9-((5-((3S,5S)-3-amino-3-(2,2-difluoroethyl)-5-methylpiperidin-1-yl)-2-(4-fluorophenyl)pyridin-4-yl)methyl)-9H-purin-6-amine]
> 1000 | Nc1ncnc2c1ncn2Cc1cc(-c2ccc(F)c(F)c2)ncc1N1CCC[C@@H](N)[C@H]1c1ccccc1 [Example 323, 9-((5-((2R,3R)-3-amino-2-phenylpiperidin-1-yl)-2-(3,4-difluorophenyl)pyridin-4-yl)methyl)-9H-purin-6-amine]

Reference: patent US11420970B1 (NOVARTIS AG, priority 2019, dated 2022)
